For 17 molecules, IC50 results are on record in patent US20200206233A1 (INTEGRAL BIOSCIENCES PRIVATE LIMITED, priority 2018, published 2020).

A word on the pIC50: it is the IC50 on a negative log10 scale, so that one unit is a factor of ten.

Format in all cases: biochemical
One experiment addresses T1, IDH1 mutant (R132H) (Homo sapiens, UniProt O75874, R132H).
T1 construct: purchased BPS Bioscience 71099-2
In words: Mutant IDH1-R132H Fluorescence Assay (Resazurin based). The following applies: 10 nM IDH1 R132H, 4 mM α-ketoglutarate, NADPH, 1.5 h at room temperature. The procedure, abridged:
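Recombinant IDH1 R132H (10 nM) was run with α-ketoglutarate (4 mM) and NADPH ([…]) for 1.5 h at room temperature in Tris pH buffer with MgCl2, BSA and mercaptoethanol. Remaining NADPH was detected via diaphorase/resazurin fluorescence (ex 540/em 590 nm). IC50 came from a 4-parameter logistic fit.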

The target of a further experiment is T2, IDH1-WT (Homo sapiens, UniProt O75874).
T2 construct: purchased BPS Bioscience 71075-2
Description: IDH1-WT Fluorescence Assay (Resazurin based). Conditions: 1 nM IDH1-WT, 200 μM isocitrate, 15 μM NADP+, 30 min at room temperature. As to the method: IC50 values of compounds against IDH1-WT was determined by Resazurin based Fluorescence assay. Assays were performed in Buffer (50 mM Tris HCl, 10 mM MgCl2, 0.03% BSA, 2 mM ß-mercaptoethanol) where total reaction volume was 25 μL in low-volume 96-well plates. Serially diluted compounds (3-fold) in DMSO (0.5% in final reaction) were incubated with cocktail of isocitrate (200 μM; Cat # I1252-1G, Sigma), NADP^+ (15 μM; Cat # N0505-500MG, Sigma) and buffer for 5 min, following addition of IDH1-WT enzyme (1 nM; Cat #71075-2, BPS Bioscience) and incubated in dark at room temperature for 30 min. After that, 12.5 μL detection solution containing Resazurin (60 μM; Cat #62758-13-8, Sigma) and Diaphorase (40 μg/ml; Cat # D2197-300UN, Sigma) in buffer was added and incubated for 15 min. Readings were taken using a Synergy Neo Plate reader (BioTek, Winooski) at single excitation of 540 nm and emission at 590 nm respectively.
The % (percent) activity of test samples was calculated as (Sample−Min)×100/(Max−Min). [Max: DMSO control, complete reaction with enzyme with DMSO and Min: No enzyme with DMSO]. Percent inhibition (100−% activity) was fitted to the “four-parameter logistic model” in XLfit for determination of IC50 values.
A general note: Resazurin is reduced to fluorescent resorufin, in cell work by metabolically active cells.

The target in another experiment is T3, IDH2 mutant (R140Q) (Homo sapiens, UniProt P48735, R140Q).
T3 construct: purchased BPS Bioscience 71100-2
T3 sequence (P48735 40-452 R140Q): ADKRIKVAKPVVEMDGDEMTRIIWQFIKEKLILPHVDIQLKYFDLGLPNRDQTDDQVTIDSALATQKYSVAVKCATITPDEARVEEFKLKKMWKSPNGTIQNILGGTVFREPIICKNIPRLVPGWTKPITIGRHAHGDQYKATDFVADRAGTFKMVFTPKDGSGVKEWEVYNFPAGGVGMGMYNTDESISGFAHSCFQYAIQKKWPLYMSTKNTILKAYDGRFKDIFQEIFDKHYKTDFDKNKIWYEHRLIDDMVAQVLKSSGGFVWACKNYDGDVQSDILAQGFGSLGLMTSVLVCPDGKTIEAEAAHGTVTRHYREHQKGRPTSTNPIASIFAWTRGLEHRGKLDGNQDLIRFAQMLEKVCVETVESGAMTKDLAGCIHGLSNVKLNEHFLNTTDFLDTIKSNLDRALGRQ
In words: Mutant IDH2-R140Q Fluorescence Assay (Resazurin based). Conditions: 5 nM IDH2 R140Q, 4 hr pre-incubation, 1 mM α-ketoglutarate, 5 μM NADPH, 2 h. The method, then: IC50 values of compounds against IDH2 mutant (R140Q) were determined by Resazurin based Fluorescence assay. Assay was performed in Buffer (25 mM Tris HCl, 150 mM NaCl, 10 mM MgCl2, 0.03% BSA, 2 mM 1-mercaptoethanol) where total reaction volume was 12.5 μL in low-volume 384-well plates (Cat #4511, Corning). Serially diluted compounds (3-fold) were pre-incubated with IDH2 R140Q mutant enzyme (5 nM; Cat #71100-2, BPS Bioscience) for 4 hr at RT (25° C.) followed by addition of cocktail of α-ketoglutarate (1 mM; Cat #75892-25G, Sigma), and NADPH (5 μM; Cat # N1630-100MG, Sigma) with buffer in dark at room temperature for 2 h. After 2 h incubation, 6.25 μL detection solution containing Resazurin (30 μM; (Cat #62758-13-8, Sigma) and Diaphorase (40 ug/ml; Cat # D2197-300UN, Sigma) in buffer was added and incubated for 15 min. Readings were taken in a Synergy Neo Plate reader (BioTek, Winooski) at single excitation of 540 nm and emission at 590 nm respectively.
The % activity of test samples was calculated as (Sample−Min)×100/(Max−Min). [Max: DMSO control, complete reaction with enzyme with DMSO and Min: No enzyme with DMSO]. Percent inhibition (100−% activity) was fitted to the “four-parameter logistic model” in XLfit for determination of IC50 values.

pIC50: −log10 of the molar value.

T1 sequence (O75874 whole entry R132H): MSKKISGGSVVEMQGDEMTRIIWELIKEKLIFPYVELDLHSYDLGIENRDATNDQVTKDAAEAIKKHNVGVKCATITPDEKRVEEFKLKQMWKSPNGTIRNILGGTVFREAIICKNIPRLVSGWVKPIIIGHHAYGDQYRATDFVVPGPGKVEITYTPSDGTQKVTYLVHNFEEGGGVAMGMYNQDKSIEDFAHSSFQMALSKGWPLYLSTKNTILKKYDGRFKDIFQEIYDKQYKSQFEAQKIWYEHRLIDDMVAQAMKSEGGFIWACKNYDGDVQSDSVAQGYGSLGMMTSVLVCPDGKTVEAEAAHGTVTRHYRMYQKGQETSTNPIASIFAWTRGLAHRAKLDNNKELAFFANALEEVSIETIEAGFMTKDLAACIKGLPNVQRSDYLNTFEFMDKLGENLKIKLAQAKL
T2 sequence (O75874 whole entry): as the sequence (O75874 whole entry R132H) above, with H132R counted along it

On to `CC(C)[C@H]1COC(=O)N1c1ncnc(N[C@@H](C)c2ccc(Cl)c(Cl)c2)n1` [Compound 1.7, (S)-3-(4-((S)-1-(3,4-dichlorophenyl)ethylamino)-1,3,5-triazin-2-yl)-4-isopropyloxazolidin-2-one], for which the pIC50 on IDH1 mutant (R132H) is 5.54; at IDH1-WT, less than 4.52; at IDH2 mutant (R140Q), less than 4.30.
The corresponding values for `CC(C)[C@H]1COC(=O)N1c1ncnc(N[C@@H](C)c2ccc(-c3ccc(C(F)(F)F)cc3)cn2)n1` [Compound 1.4, (S)-4-isopropyl-3-(4-((S)-1-(5-(4-(trifluoromethyl)phenyl)pyridin-2-yl)ethylamino)-1,3,5-triazin-2-yl)oxazolidin-2-one] are 5.48, less than 4.52 and less than 4.30.
The corresponding values for `CC[C@H]1COC(=O)N1c1nc(C)nc(N[C@@H](C)c2cn(-c3ccc(C(F)(F)F)cc3)cn2)n1` [Compound 1.40, (S)-4-ethyl-3-(4-methyl-6-((S)-1-(1-(4-(trifluoromethyl)phenyl)-1H-imidazol-4-yl)ethylamino)-1,3,5-triazin-2-yl)oxazolidin-2-one] are 6.53, less than 4.30 and less than 4.30.
The corresponding values for `CC(C)[C@H]1COC(=O)N1c1ncnc(NCc2ccc(Oc3ccccc3)cc2)n1` [Compound 1.28, (S)-4-isopropyl-3-(4-(4-phenoxybenzylamino)-1,3,5-triazin-2-yl)oxazolidin-2-one] are 5.34, less than 4.30 and less than 4.30.
In the case of `CC[C@H]1COC(=O)N1c1nc(C)nc(N[C@@H](C)c2ccc(Oc3cccnc3C(F)(F)F)cc2)n1` [Compound 1.81, (S)-4-ethyl-3-(4-methyl-6-((S)-1-(4-(2-(trifluoromethyl)pyridin-3-yloxy)phenyl)ethylamino)-1,3,5-triazin-2-yl)oxazolidin-2-one], the pIC50 at IDH1 mutant (R132H) is 6.23; on IDH1-WT, less than 4.30; on IDH2 mutant (R140Q), less than 4.30.
Take `CC(C)[C@H]1COC(=O)N1c1ncnc(N[C@@H](C)c2cc3cc(Cl)ccc3[nH]c2=O)n1` [Compound 1.23, (S)-3-(4-((S)-1-(6-chloro-2-oxo-1,2-dihydroquinolin-3-yl)ethylamino)-1,3,5-triazin-2-yl)-4-isopropyloxazolidin-2-one]: the results for the pIC50 on IDH1 mutant (R132H), at IDH1-WT and at IDH2 mutant (R140Q) were 6.44, less than 4.30 and less than 4.30, respectively.
Consider `CC[C@H]1COC(=O)N1c1nc(C)nc(N[C@@H](C)c2ccc(Oc3ccc(F)cc3)cc2)n1` [Compound 1.58, (S)-4-ethyl-3-(4-((S)-1-(4-(4-fluorophenoxy)phenyl)ethylamino)-6-methyl-1,3,5-triazin-2-yl)oxazolidin-2-one], for which the pIC50 at IDH1 mutant (R132H) was 6.51; on IDH1-WT it was less than 4.30; on IDH2 mutant (R140Q) it was less than 4.30.
Take `CC[C@H](Nc1ncnc(N2C(=O)OC[C@@H]2C(C)C)n1)c1ccc(Oc2ccccc2)cc1` [Compound 1.35, (S)-4-isopropyl-3-(4-((S)-1-(4-phenoxyphenyl)propylamino)-1,3,5-triazin-2-yl)oxazolidin-2-one]: the results for the pIC50 at IDH1 mutant (R132H), on IDH1-WT and on IDH2 mutant (R140Q) were 6.06, less than 4.52 and less than 4.30, respectively.
`Cc1nc(N[C@@H](C)c2ccc(Oc3ccccc3)cc2)nc(N2C(=O)OC[C@@H]2C(C)C)n1` [Compound 1.27, (S)-4-isopropyl-3-(4-methyl-6-((S)-1-(4-phenoxyphenyl)ethylamino)-1,3,5-triazin-2-yl)oxazolidin-2-one]: the pIC50 at IDH1 mutant (R132H) was 6.40; at IDH1-WT, less than 4.30; on IDH2 mutant (R140Q) it was less than 4.30.
For `CC(C)[C@H]1COC(=O)N1c1ncnc(N[C@@H](C)c2cn(-c3ccc(Cl)cc3)cn2)n1` [Compound 1.13, (S)-3-(4-((S)-1-(1-(4-chlorophenyl)-1H-imidazol-4-yl)ethylamino)-1,3,5-triazin-2-yl)-4-isopropyloxazolidin-2-one], the results for the pIC50 on IDH1 mutant (R132H), at IDH1-WT and at IDH2 mutant (R140Q) were 6.11, less than 4.52 and less than 4.30, respectively.
The corresponding values for `CC[C@H]1COC(=O)N1c1nc(C)nc(N[C@@H](C)c2ccc(Sc3ccc(F)cc3)cc2)n1` [Compound 1.92, (S)-4-ethyl-3-(4-((S)-1-(4-(4-fluorophenylthio)phenyl)ethylamino)-6-methyl-1,3,5-triazin-2-yl)oxazolidin-2-one] are 6.13, less than 4.30 and less than 4.30.
The corresponding values for `CC[C@H]1COC(=O)N1c1nc(C)nc(N[C@@H](C)c2ccc3ccn(-c4ccccc4)c3c2)n1` [Compound 1.85, (S)-4-ethyl-3-(4-methyl-6-((S)-1-(1-phenyl-1H-indol-6-yl)ethylamino)-1,3,5-triazin-2-yl)oxazolidin-2-one] are 6.04, less than 4.30 and less than 4.30.
The corresponding values for `COc1nc(N[C@@H](C)c2ccc(Oc3ccccc3)cc2)nc(N2C(=O)OC[C@@H]2C(C)C)n1` [Compound 1.31, (S)-4-isopropyl-3-(4-methoxy-6-((S)-1-(4-phenoxyphenyl)ethylamino)-1,3,5-triazin-2-yl)oxazolidin-2-one] are 6.31, less than 4.52 and less than 4.30.
Take `CC[C@H]1COC(=O)N1c1nc(C)nc(N[C@@H](C)c2ccc(Oc3ccccc3)cn2)n1` [Compound 1.75, (S)-4-ethyl-3-(4-methyl-6-((S)-1-(5-phenoxypyridin-2-yl)ethylamino)-1,3,5-triazin-2-yl)oxazolidin-2-one]: the pIC50 at IDH1 mutant (R132H) is 6.08; at IDH1-WT, less than 4.30; at IDH2 mutant (R140Q) it was less than 4.30.
For the molecule `CC[C@H]1COC(=O)N1c1nc(C)nc(N[C@@H](C)c2ccc(Oc3ccccc3)c(F)c2)n1` [Compound 1.84, (S)-4-ethyl-3-(4-((S)-1-(3-fluoro-4-phenoxyphenyl)ethylamino)-6-methyl-1,3,5-triazin-2-yl)oxazolidin-2-one], the pIC50 at IDH1 mutant (R132H) is 6.21; on IDH1-WT, less than 4.30; at IDH2 mutant (R140Q), less than 4.30.
For `CC[C@H]1COC(=O)N1c1nc(C)nc(N[C@@H](C)c2ccc(Oc3ccccc3)c(C)c2)n1` [Compound 1.86, (S)-4-ethyl-3-(4-methyl-6-((S)-1-(3-methyl-4-phenoxyphenyl)ethylamino)-1,3,5-triazin-2-yl)oxazolidin-2-one], the pIC50 on IDH1 mutant (R132H) is 6.56; on IDH1-WT it was less than 4.30; at IDH2 mutant (R140Q), less than 4.30.
Turning to `CC[C@@H](Nc1ncnc(N2C(=O)OC[C@@H]2C(C)C)n1)c1ccc(Oc2ccccc2)cc1` [Compound 1.34, (S)-4-isopropyl-3-(4-((R)-1-(4-phenoxyphenyl)propylamino)-1,3,5-triazin-2-yl)oxazolidin-2-one], the pIC50 on IDH1 mutant (R132H) was less than 4.52; at IDH1-WT, less than 4.52; on IDH2 mutant (R140Q), less than 4.30.
